One compound from publication PMC12769565, “Design, synthesis and biological activity of glycoconjugated ADAMTS5 exosite inhibitors: applications in osteoarthritis and ovarian cancer models” (Scientific Reports, 2025) can be followed below.

Common to all, as to format: biochemical
In experiment [1] the target is T1, ADAMTS5 (Homo sapiens, UniProt Q9UNA0).
T1 construct: Human recombinant full-length FLAG-tagged ADAMTS4 and ADAMTS5 were expressed in HEK293T cells; FLAG; made in house; host or cells: HEK293T cells
T1 sequence (Q9UNA0 262-930): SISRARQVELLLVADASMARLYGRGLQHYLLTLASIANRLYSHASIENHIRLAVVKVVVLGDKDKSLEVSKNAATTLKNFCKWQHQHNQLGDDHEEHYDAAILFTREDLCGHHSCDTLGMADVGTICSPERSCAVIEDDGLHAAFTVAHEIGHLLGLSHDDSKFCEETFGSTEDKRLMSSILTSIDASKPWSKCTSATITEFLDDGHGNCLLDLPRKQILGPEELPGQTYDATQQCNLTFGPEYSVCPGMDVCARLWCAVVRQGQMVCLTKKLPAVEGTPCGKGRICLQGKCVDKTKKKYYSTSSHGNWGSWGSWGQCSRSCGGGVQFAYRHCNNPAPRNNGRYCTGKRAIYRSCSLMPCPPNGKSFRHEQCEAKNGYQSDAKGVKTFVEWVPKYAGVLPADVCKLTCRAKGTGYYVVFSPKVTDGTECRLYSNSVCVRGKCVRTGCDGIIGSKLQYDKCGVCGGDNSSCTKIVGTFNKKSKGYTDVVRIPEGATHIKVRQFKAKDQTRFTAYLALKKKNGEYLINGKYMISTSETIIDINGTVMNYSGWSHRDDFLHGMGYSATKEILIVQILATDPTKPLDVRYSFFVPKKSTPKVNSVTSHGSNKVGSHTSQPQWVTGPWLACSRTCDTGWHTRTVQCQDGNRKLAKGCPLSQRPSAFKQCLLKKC
Description: Aggrecanase assay (bovine aggrecan, anti-ARGSV neoepitope immunoblot). As to conditions: 100 µM. How it is done:
Aggrecanase assays were carried out as before. ADAMTS5 (1 nM) was incubated with compounds 2 and 3 or DMSO for 2 h at 37 °C in TNC-B buffer before addition of bovine articular aggrecan (UniProt ID: P13608, 270 nM) (Merck, A1960). After 2 h digestion at 37 °C, the reactions were stopped with ethylenediaminetetraacetic acid and the samples incubated with 0.1 U/ml of chondroitinase ABC (AMS Biotechnology, Abingdon, UK) and keratanase (endo-beta galactosidase, Merck, G6920) in deglycosylation buffer (50 mM sodium acetate, 25 mM Tris HCl pH 8.0) for 16 h at 37 °C to remove GAG chains.
Samples were separated by SDS-PAGE under reducing conditions (5% β-mercaptoethanol) on BOLT, 4–12%, Bis-Tris Gels (Invitrogen) in MES Running Buffer (NuPAGE). Proteins were transferred onto a nitrocellulose membrane using Trans-Blot Turbo™ Transfer System (BioRad), at 25 V, 2.5 A for 30 min. Membranes were blocked with 3% BSA/PBS for 1 h at room temperature. Aggrecan fragments generated by ADAMTS cleavage at E^392-A^393[8] or E^1953-A^1954[68] were detected using mouse monoclonal anti-ARGSV antibody (BC3, Life Technologies, MA3-16888, 4 µg/ml) or polyclonal anti-AGEG neoepitope antibody (serum, 1:200 dilution)[12],[33], respectively, followed by the appropriate horseradish peroxidase (HRP)-conjugated secondary antibodies (polyclonal Goat Anti-Mouse P0447, 0.1 ng/µl and polyclonal Goat Anti-Rabbit, P0448, 0.03 ng/µl, both from Agilent Technologies LDA UK Ltd). All antibodies were diluted in 0.5% bovine serum albumin (BSA)/PBS. Washes between each step were carried out in triplicate, for 15 min each, with PBS-Tween (0.1%). Following addition of the chemiluminescent HRP substrate (Millipore, WBKL30500) membranes were imaged using Bio-Rad Chemidoc Touch Imaging System. Analysis was carried out using BioRad ImageLab software (version 5.2.1) using sequential exposures to avoid saturation artifacts. Figures for unprocessed blots are included in Supplementary information Fig. S4 and Fig. S5 with highlighted regions (in red boxes) corresponding to the data reported in the main manuscript figures.

For experiment [2], the target named is T2, ADAMTS4 (Homo sapiens, UniProt O75173).
T2 construct: Human recombinant full-length FLAG-tagged ADAMTS4 and ADAMTS5 were expressed in HEK293T cells; FLAG; made in house; host or cells: HEK293T cells
T2 sequence (O75173 213-837): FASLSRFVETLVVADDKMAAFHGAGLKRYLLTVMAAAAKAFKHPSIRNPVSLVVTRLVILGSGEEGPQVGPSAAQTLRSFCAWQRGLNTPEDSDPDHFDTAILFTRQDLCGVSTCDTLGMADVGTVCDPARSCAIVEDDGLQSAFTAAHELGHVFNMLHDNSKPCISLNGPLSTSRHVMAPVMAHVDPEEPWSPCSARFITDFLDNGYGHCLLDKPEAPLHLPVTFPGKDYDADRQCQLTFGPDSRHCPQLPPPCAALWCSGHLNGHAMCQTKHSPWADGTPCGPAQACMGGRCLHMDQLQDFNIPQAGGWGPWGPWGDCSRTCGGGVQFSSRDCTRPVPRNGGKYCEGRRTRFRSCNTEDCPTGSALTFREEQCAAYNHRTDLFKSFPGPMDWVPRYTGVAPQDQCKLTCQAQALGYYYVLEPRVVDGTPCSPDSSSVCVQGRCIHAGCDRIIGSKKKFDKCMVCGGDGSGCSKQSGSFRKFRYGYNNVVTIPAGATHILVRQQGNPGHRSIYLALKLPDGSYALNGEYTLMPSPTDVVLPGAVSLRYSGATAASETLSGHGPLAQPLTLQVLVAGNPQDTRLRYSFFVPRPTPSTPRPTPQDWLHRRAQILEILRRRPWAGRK
The experiment can be described thus: QF peptide cleavage assay (peptidolytic activity). As to conditions: compared to DMSO control. How it is done:
(§1) Human recombinant full-length FLAG-tagged ADAMTS4 and ADAMTS5 were expressed in HEK293T cells (Thermo Fisher Scientific) and purified by anti-FLAG immunoaffinity chromatography as before. Concentrations of active proteases were determined by active-site titrations with known concentrations of TIMP-3 (Bio-Techne, 973-TM-010), using QF peptides as substrates. V1-5GAG, a truncated version of versican V1 isoform comprising residues 21–694 and containing a C-terminal 6x His tag[67], was expressed in HE293T cells and purified by immobilized metal affinity chromatography as before.
(§2) QF peptide cleavage assays were conducted in TNC-B (50 mM Tris–HCl, pH 7.5, 150 mM NaCl, 10 mM CaCl2, and 0.02% NaN3) on a SpectraMax i3x Multi-Mode Platform (Molecular Devices, UK) in a total volume of 20 µl at 37℃ as before. ADAMTS4 (3.5 nM) or ADAMTS5 (4 nM) were incubated with compounds 1–4 (100 µM, diluted in TNC-B from 10 mM DMSO stocks) or DMSO for 1 h at 37 ℃ before addition of QF peptides fluorescein-5(6)-carbonyl-[…]N, N,N0,N0-tetramethyl-6-carboxyrhodamine, and fluorescein-5(6)-carbonyl-Thr-Glu-Ser-Glu - […]N, N,N0,N0-tetramethyl-6-carboxyrhodamine, respectively, each at 40 µM. Fluorescence intensity was recorded with an excitation wavelength of 485 nm and an emission wavelength of 535 nm every min for 2 h, expressed as relative fluorescence units and normalized against a blank containing only buffer and substrate. Fluorescence values were converted into residual activity by fixing as 100% the activity of the reactions containing an equal concentration (v/v) of DMSO instead of compound (DMSO control).

For experiment [3], the target named is T1, ADAMTS5. Description: QF peptide cleavage assay (peptidolytic activity). As to conditions: 100 µM; compared to DMSO control. How it is done: as §1, §2
For experiment [4], the target named is T2, ADAMTS4. Description: Versicanase assay (V1-5GAG, versikine sandwich ELISA). As to conditions: compared to DMSO control. How it is done:
as §1
Compounds 1–4 (100 µM) or DMSO were incubated with ADAMTS4 (5 nM) or ADAMTS5 (0.4 nM) for 2 h at 37 °C, before addition of V1-5GAG (50 nM). At each time point, reactions were stopped by addition of ethylenediaminetetraacetic acid and ADAMTS-generated versican fragments (versikine) quantified by sandwich ELISA as before[29],[30],[38] using anti-DPEAAE neoepitope antibody (Life Technologies, PA1-1748 A, 5 µg/ml) and polyclonal anti-versican antibody (Abcam, ab171887, 3 µg/ml). For each reaction, the amount of versikine generated was derived from a standard curve (0–1.56 nM) of V1-5GAG completely digested with ADAMTS5. Initial velocities were calculated from the concentration of versikine generated as a function of reaction time. Percent of inhibition was calculated from the DMSO control reactions. IC50 values were determined using the formula: vi/v0 = 1/(1 + [I]/IC50) where vi is the initial velocity of substrate cleavage in the presence of the inhibitor at concentration [I] and v0 is the initial velocity in the presence of an equal concentration (v/v) of DMSO.

As for `CCC(C)N(Cc1cn(CCCO[C@@H]2O[C@H](CO[C@@H]3O[C@H](CO)[C@H](O)[C@H](O)[C@H]3O)[C@@H](O)[C@H](O)[C@H]2NC(C)=O)nn1)S(=O)(=O)c1ccc(-c2ccccc2)cc1` (stereo partly drawn) [compound 3, N-((2R,3R,4R,5 S,6R)-2-(3-(4-((N-(sec-butyl)-[1,1’-biphenyl]-4-sulfonamido)methyl)-1 H-1,2,3-triazol-1-yl)propoxy)-4,5-dihydroxy-6-((((2R,3R,4 S,5R,6R)-3,4,5-trihydroxy-6-(hydroxymethyl)tetrahydro-2 H-pyran-2-yl)oxy)methyl)tetrahydro-2 H-pyran-3-yl)acetamide], on ADAMTS5 [1], the “inhibition of ADAMTS5 aggrecanase activity” value is reported as “ineffective”. Also, the inhibition at 100 µM against ADAMTS4 [2] stood at 48%; on ADAMTS4 [4], 42%. The “inhibition of ADAMTS5 peptidolytic activity” value on ADAMTS5 [3] is “significant inhibition”.
